Measured values published in patent US12685776B2, “Arginine methyltransferase 5 (PRMT5) degraders and uses thereof” (DANA-FARBER CANCER INSTITUTE, INC., priority 2020, dated 2026).

Key:
[1] = system: A427 cells; assay: Cell-proliferation assay (CellTiter-Glo 2.0) in A427 cells; format: cell-based; conditions: FIG. 3A
Method: (§1) Inventive bifunctional compounds 1 and 2 were tested in the A427 (anon-small cell lung cancer (NSCLC) cell line) and H661(human lung large cell carcinoma) cells. CellTiter-Glo® 2.0 Cell Viability Assay (Promega™) was used to measure cell growth (proliferation) inhibition and to report the ATP level reduction in cells after treatment with the bifunctional compounds.

[2] = biological target: PRMT5/MEP50 (Homo sapiens, UniProt O14744); assay: PRMT5 activity inhibition, AlphaLISA assay; format: biochemical; conditions: PRMT5/MEP50 with biotinylated histone tail, FIG. 2A
PRMT5/MEP50, sequence (O14744 whole entry): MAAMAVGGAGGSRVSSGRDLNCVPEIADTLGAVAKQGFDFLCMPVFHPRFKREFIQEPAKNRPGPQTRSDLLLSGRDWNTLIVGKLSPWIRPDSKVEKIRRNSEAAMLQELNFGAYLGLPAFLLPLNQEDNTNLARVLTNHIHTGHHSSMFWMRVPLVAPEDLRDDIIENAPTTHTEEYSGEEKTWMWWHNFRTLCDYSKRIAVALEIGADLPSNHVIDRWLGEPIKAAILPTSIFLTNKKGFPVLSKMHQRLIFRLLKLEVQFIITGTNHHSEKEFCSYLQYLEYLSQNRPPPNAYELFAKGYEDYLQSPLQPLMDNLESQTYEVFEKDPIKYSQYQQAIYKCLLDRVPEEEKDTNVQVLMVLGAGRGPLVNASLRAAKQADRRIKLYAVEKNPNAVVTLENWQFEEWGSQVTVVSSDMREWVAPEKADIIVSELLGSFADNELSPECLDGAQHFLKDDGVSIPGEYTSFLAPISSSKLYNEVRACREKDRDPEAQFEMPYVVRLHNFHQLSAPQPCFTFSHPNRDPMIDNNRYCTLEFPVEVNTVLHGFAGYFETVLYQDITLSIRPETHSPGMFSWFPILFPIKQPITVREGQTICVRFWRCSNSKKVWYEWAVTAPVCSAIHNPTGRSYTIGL
PRMT5/MEP50, sequence (Q9BQA1 whole entry partner): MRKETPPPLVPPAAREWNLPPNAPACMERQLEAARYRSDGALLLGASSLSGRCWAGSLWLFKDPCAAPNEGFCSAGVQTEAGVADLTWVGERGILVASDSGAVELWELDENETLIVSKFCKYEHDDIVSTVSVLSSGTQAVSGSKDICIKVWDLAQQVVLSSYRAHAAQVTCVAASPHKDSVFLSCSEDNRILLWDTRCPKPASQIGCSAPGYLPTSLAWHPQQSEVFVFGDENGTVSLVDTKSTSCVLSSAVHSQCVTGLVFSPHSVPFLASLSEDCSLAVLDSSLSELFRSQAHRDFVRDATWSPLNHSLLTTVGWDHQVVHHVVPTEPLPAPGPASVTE
Method: PMRT5 inhibition in HEK 293 WT cells was determined by AlphaLISA® assay (PerkinElmer®) according to manufacturer's instructions. The biotinylated Histone 4 […] histone tail was incubated with PRMT5/MEP50 and inventive bifunctional compounds 1-9, cereblon-based bifunctional compound PRMT5-58, PRMT5 inhibitors EPZ15666 and LLY-283 and RPN13 inhibitor RA190. Then the H4R3symetric Me2 antibody coated beads together with streptavidin beads were incubated together. Assays were processed by EnVision® multimode plate reader (PerkinElmer®).

[3] = system: H661 cells; assay: Cell-proliferation assay (CellTiter-Glo 2.0) in H661 cells; format: cell-based, human; conditions: FIG. 3B
Method: as §1

[4] = biological target: T1, RPN13 (Homo sapiens, UniProt Q16186); assay: Immunoblot analysis of HL60 cells, RPN13 degradation; format: cell-based; conditions: 24 hours, FIG. 4B
T1 construct: endogenous in cells; host or cells: HL60
T1 sequence (Q16186 whole entry): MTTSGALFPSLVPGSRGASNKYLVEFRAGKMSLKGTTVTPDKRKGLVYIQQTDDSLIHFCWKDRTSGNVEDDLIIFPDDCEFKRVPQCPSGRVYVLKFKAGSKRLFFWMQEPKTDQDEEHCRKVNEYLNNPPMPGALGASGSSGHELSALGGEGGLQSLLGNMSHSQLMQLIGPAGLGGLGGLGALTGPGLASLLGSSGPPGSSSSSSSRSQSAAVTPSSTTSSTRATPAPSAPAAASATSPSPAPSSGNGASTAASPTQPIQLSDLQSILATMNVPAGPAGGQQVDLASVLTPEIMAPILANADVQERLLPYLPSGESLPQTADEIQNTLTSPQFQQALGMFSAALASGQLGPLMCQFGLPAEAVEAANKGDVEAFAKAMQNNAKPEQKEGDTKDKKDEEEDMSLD
Method: (§2) FIG. 4B is an image showing an immunoblot analysis of HL60 cells treated with different concentrations (μM) of inventive bifunctional compound 14 for 24 hours.
(§3) Protein lysates were subjected to immunoblot analysis using anti-Rpn13, anti-betaActin, anti-H4R3Me2s, anti-H3, anti-RPN1 and anti-RPN10.

[5] = biological target: T2, PRMT5 (Homo sapiens, UniProt O14744); assay: Immunoblot analysis of HL60 cells, PRMT5 degradation; format: cell-based; conditions: 24 hours, FIG. 4B
T2 construct: endogenous in cells; host or cells: HL60
T2 sequence (O14744 whole entry): as the sequence (O14744 whole entry) above
T2 sequence (Q9BQA1 whole entry partner): as the sequence (Q9BQA1 whole entry partner) above
Method: as §2, §3

[6] = system: HL60 cells; assay: Immunoblot analysis of HL60 cells, blotted targets; format: cell-based; conditions: FIG. 4A
Method: FIG. 4A is an image showing an immunoblot analysis of HL60 cells treated with different concentrations (μM) of inventive bifunctional compound 13 for 24 hours and 48 hours.
as §3

O=C(CCCC(=O)N[C@@H](Cc1ccccc1)C(=O)N1C/C(=C\c2ccc(Cl)c(Cl)c2)C(=O)/C(=C/c2ccc(Cl)c(Cl)c2)C1)NCCCC(=O)N1CC(Nc2cc(C(=O)NC[C@H](O)CN3CCc4ccccc4C3)ncn2)C1 [Compound 1, N1-((S)-1-(3,5-bis((E)-3,4-dichlorobenzylidene)-4-oxopiperidin-1-yl)-1-oxo-3-phenylpropan-2-yl)-N5-(4-(3-((6-(((S)-3-(3,4-dihydroisoquinolin-2(1H)-yl)-2-hydroxypropyl)carbamoyl)pyrimidin-4-yl)amino)azetidin-1-yl)-4-oxobutyl)glutaramide]
inhibition of cell growth (proliferation) [1]: effectively inhibited growth
PRMT5 activity inhibition [2]: successfully inhibited PRMT5 function
inhibition of cell growth (proliferation) [3]: effectively inhibited growth

O=C(CCCC(=O)N1CCC(Nc2cc(C(=O)NC[C@@H](O)CN3CCc4ccccc4C3)ncn2)CC1)N[C@@H](Cc1ccccc1)C(=O)N1C/C(=C\c2ccc(Cl)c(Cl)c2)C(=O)/C(=C/c2ccc(Cl)c(Cl)c2)C1 [Compound 14, 6-((1-(5-(((S)-1-(3,5-bis((E)-3,4-dichlorobenzylidene)-4-oxopiperidin-1-yl)-1-oxo-3-phenylpropan-2-yl)amino)-5-oxopentanoyl)piperidin-4-yl)amino)-N-((R)-3-(3,4-dihydroisoquinolin-2(1H)-yl)-2-hydroxypropyl)pyrimidine-4-carboxamide]
concentration resulting in degradation of RPN13 [4]: 1 µM
concentration with complete loss of RPN13 [4]: 3 µM
concentration resulting in degradation of PRMT5 [5]: 1 µM
concentration with complete loss of PRMT5 [5]: 3 µM

O=C(CNc1cc(C(=O)NC[C@H](O)CN2CCc3ccccc3C2)ncn1)NCCCCCCC(=O)N[C@@H](Cc1ccccc1)C(=O)N1C/C(=C\c2ccc([N+](=O)[O-])cc2)C(=O)/C(=C/c2ccc([N+](=O)[O-])cc2)C1 [Compound 13, 6-((2-((7-(((S)-1-(3,5-bis((E)-4-nitrobenzylidene)-4-oxopiperidin-1-yl)-1-oxo-3-phenylpropan-2-yl)amino)-7-oxoheptyl)amino)-2-oxoethyl)amino)-N-((S)-3-(3,4-dihydroisoquinolin-2(1H)-yl)-2-hydroxypropyl)pyrimidine-4-carboxamide]
degradation of blotted targets ([6]; 24 and 48 hours): minimum degradation
concentration tolerated in the cell [6]: up to 10 μM
